Test results: article PMC9516332 (Frontiers in Oncology, 2022)
Like-named read-outs stand apart in the source and are kept apart here.

Columns and labels:
[1] = target: panel of 255 wild-type kinases (Homo sapiens, UniProt P45983); experiment: Kinase panel profiling at 1 µmol/L (MSA or IMAP), percentage inhibition; assay type: biochemical; details: kinase JNK1; 1 µmol/L single concentration; read-out: %-inhibition at 1 µmol/L, JNK1
[2] = target: T1, panel of 255 wild-type kinases (Homo sapiens, UniProt Q8IW41); experiment: as above; assay type: biochemical; details: MAPKAPK5; 1 µmol/L single concentration; read-out: %-inhibition, MAPKAPK5
T1 sequence (Q8IW41 1-473): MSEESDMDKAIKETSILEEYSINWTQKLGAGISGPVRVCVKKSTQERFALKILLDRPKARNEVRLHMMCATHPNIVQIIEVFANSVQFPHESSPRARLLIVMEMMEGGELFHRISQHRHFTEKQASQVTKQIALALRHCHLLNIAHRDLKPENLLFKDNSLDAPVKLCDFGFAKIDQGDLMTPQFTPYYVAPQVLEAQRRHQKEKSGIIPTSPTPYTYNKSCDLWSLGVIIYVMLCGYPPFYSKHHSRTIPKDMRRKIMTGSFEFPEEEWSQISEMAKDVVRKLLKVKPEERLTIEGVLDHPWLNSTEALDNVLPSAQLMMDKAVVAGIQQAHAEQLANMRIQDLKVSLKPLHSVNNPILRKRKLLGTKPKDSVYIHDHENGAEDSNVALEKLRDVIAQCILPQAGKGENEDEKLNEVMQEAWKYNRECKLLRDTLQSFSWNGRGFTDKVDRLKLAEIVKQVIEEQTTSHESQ

[3] = test system: AP-1060 (ETV6-NTRK3); experiment: Cell viability assay; details: read-out: IC50 in cell proliferation assay
[4] = test system: 134 cancer cell lines; experiment: Cell viability assay (ATPlite, 72 hours), IC50 on cancer cell line panel

SMILES: Cn1cc(-c2cc3c(N4CCN(c5ncc([C@@](C)(N)c6ccc(F)cc6)cn5)CC4)ncnn3c2)cn1 [avapritinib]
- inhibition at 1 µM [1]: -4.54%
- inhibition at 1 µM [2]: 2%
- IC50 [3]: 3.46 µM
- IC50 ([4]; HEC-6, read-out: IC50 in cell proliferation assay): 20.9 µM
- IC50 ([4]; Homo sapiens, 769-P, read-out: IC50 in cell proliferation assay): 3 µM
- IC50 ([4]; Homo sapiens, 786-0, read-out: IC50 in cell proliferation assay): 11.8 µM
- IC50 ([4]; Homo sapiens, A 172, read-out: IC50 in cell proliferation assay): 5.91 µM
- IC50 ([4]; Homo sapiens, A204, read-out: IC50 in cell proliferation assay): 0.171 µM
- IC50 ([4]; Homo sapiens, A498, read-out: IC50 in cell proliferation assay): 15.4 µM
- IC50 ([4]; Homo sapiens, A549, read-out: IC50 in cell proliferation assay): 20.5 µM
- IC50 ([4]; Homo sapiens, A704, read-out: IC50 in cell proliferation assay): 22.7 µM
- IC50 ([4]; Homo sapiens, A-375, read-out: IC50 in cell proliferation assay): 17.8 µM
- IC50 ([4]; Homo sapiens, A-427, read-out: IC50 in cell proliferation assay): 8.02 µM
- IC50 ([4]; Homo sapiens, ACHN, read-out: IC50 in cell proliferation assay): 14.8 µM
- IC50 ([4]; Homo sapiens, AN3-CA, read-out: IC50 in cell proliferation assay): 18.1 µM
- IC50 ([4]; Homo sapiens, ASPC1, read-out: IC50 in cell proliferation assay): > 31.6 µM
- IC50 ([4]; Homo sapiens, AU565, read-out: IC50 in cell proliferation assay): 10.1 µM
- IC50 ([4]; Homo sapiens, BT-20, read-out: IC50 in cell proliferation assay): 27.7 µM
- IC50 ([4]; Homo sapiens, BT-474, read-out: IC50 in cell proliferation assay): 7.71 µM
- IC50 ([4]; Homo sapiens, BT-549, read-out: IC50 in cell proliferation assay): 5.18 µM
- IC50 ([4]; Homo sapiens, BXPC-3, read-out: IC50 in cell proliferation assay): 0.292 µM
- IC50 ([4]; Homo sapiens, C-33-A, read-out: IC50 in cell proliferation assay): 4.64 µM
- IC50 ([4]; Homo sapiens, CAL-27, read-out: IC50 in cell proliferation assay): 11 µM
- IC50 ([4]; Homo sapiens, CCF-STTG1, read-out: IC50 in cell proliferation assay): 5.69 µM
- IC50 ([4]; Homo sapiens, CCRF-CEM, read-out: IC50 in cell proliferation assay): 8.33 µM
- IC50 ([4]; Homo sapiens, COLO 205, read-out: IC50 in cell proliferation assay): 10.7 µM
- IC50 ([4]; Homo sapiens, COLO-829, read-out: IC50 in cell proliferation assay): 10.1 µM
- IC50 ([4]; Homo sapiens, DLD-1, read-out: IC50 in cell proliferation assay): 15.2 µM
- IC50 ([4]; Homo sapiens, DU-145, read-out: IC50 in cell proliferation assay): 9.13 µM
- IC50 ([4]; Homo sapiens, DU-4475, read-out: IC50 in cell proliferation assay): 7.09 µM
- IC50 ([4]; Homo sapiens, Daoy, read-out: IC50 in cell proliferation assay): 27.8 µM
- IC50 ([4]; Homo sapiens, DoTc2-4510, read-out: IC50 in cell proliferation assay): 16.3 µM
- IC50 ([4]; Homo sapiens, EOL1, read-out: IC50 in cell proliferation assay): 0.000567 µM
- IC50 ([4]; Homo sapiens, FaDu, read-out: IC50 in cell proliferation assay): 9.3 µM
- IC50 ([4]; Homo sapiens, G-361, read-out: IC50 in cell proliferation assay): 9.28 µM
- IC50 ([4]; Homo sapiens, HCC827, read-out: IC50 in cell proliferation assay): 14 µM
- IC50 ([4]; Homo sapiens, HCC4006, read-out: IC50 in cell proliferation assay): 8.01 µM
- IC50 ([4]; Homo sapiens, HCT-15, read-out: IC50 in cell proliferation assay): 6.36 µM
- IC50 ([4]; Homo sapiens, HCT-116, read-out: IC50 in cell proliferation assay): 8.76 µM
- IC50 ([4]; Homo sapiens, HEC-1, read-out: IC50 in cell proliferation assay): 17 µM
- IC50 ([4]; Homo sapiens, HEC-1B, read-out: IC50 in cell proliferation assay): 8.74 µM
- IC50 ([4]; Homo sapiens, HL-60, read-out: IC50 in cell proliferation assay): 5.2 µM
- IC50 ([4]; Homo sapiens, HT, read-out: IC50 in cell proliferation assay): 22.9 µM
- IC50 ([4]; Homo sapiens, HT-1080, read-out: IC50 in cell proliferation assay): 9.14 µM
- IC50 ([4]; Homo sapiens, Hs746T, read-out: IC50 in cell proliferation assay): 1.81 µM
- IC50 ([4]; Homo sapiens, Hs-578T, read-out: IC50 in cell proliferation assay): 16.8 µM
- IC50 ([4]; Homo sapiens, HuTu80, read-out: IC50 in cell proliferation assay): 5.13 µM
- IC50 ([4]; Homo sapiens, J82, read-out: IC50 in cell proliferation assay): 24.4 µM
- IC50 ([4]; Homo sapiens, Jurkat E6.1, read-out: IC50 in cell proliferation assay): 4.07 µM
- IC50 ([4]; Homo sapiens, K562, read-out: IC50 in cell proliferation assay): 6.03 µM
- IC50 ([4]; Homo sapiens, KATO III, read-out: IC50 in cell proliferation assay): 6.66 µM
- IC50 ([4]; Homo sapiens, KG-1, read-out: IC50 in cell proliferation assay): 1.92 µM
- IC50 ([4]; Homo sapiens, KLE, read-out: IC50 in cell proliferation assay): 5.61 µM
- IC50 ([4]; Homo sapiens, KMS-11, read-out: IC50 in cell proliferation assay): 6.59 µM
- IC50 ([4]; Homo sapiens, KU812, read-out: IC50 in cell proliferation assay): 3.11 µM
- IC50 ([4]; Homo sapiens, Kasumi 1, read-out: IC50 in cell proliferation assay): 0.075 µM
- IC50 ([4]; Homo sapiens, LC-2-ad, read-out: IC50 in cell proliferation assay): 4.91 µM
- IC50 ([4]; Homo sapiens, LNCaP-Clone-FGC, read-out: IC50 in cell proliferation assay): 16 µM
- IC50 ([4]; Homo sapiens, LS174T, read-out: IC50 in cell proliferation assay): 6.55 µM
